Results reported in ChEMBL document CHEMBL1201862, “PubChem BioAssay data set” (2004).
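Five concentrations, 48 hours, 96-well plates. GI50 is the concentration that inhibits growth by half.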 Activity calls are given as the source filed them. Cut-off read from the data, not from the text of the source: active = GI50 up to about 1.1 µM and inactive = higher.

What was measured:
Assay in all cases: NCI tumour cell line growth inhibition, 48 h
DMS-114 = system: DMS-114
U-251 = system: U-251
Malme-3M = system: Malme-3M
TK-10 = system: TK-10
NCI-H460 = system: NCI-H460
SN12C = system: SN12C
SNB-75 = system: SNB-75
CCRF-CEM = system: CCRF-CEM
SK-OV-3 = system: SK-OV-3
SK-MEL-5 = system: SK-MEL-5
ACHN = system: ACHN
A549 = system: A549
CAKI-1 = system: CAKI-1
NCI-H522 = system: NCI-H522
HCC 2998 = system: HCC 2998
SR = system: SR
LOX IMVI = system: LOX IMVI
DU-145 = system: DU-145
BT-549 = system: BT-549
MDA-MB-435 = system: MDA-MB-435

Measured: GI50

CC1(C)CCC[C@@]2(C)C1C[C@H](O)[C@@]1(C)O[C@@](C)([C@H](O)CO)CCC21 (some centres not stated)
inactive: DMS-114 25.3 µM | U-251 37.2 µM | Malme-3M 40.6 µM | TK-10 22.9 µM | NCI-H460 40.9 µM | SN12C 37.2 µM | SNB-75 20.1 µM | CCRF-CEM 29.7 µM | SK-OV-3 25.1 µM | SK-MEL-5 20.9 µM | ACHN 26 µM | A549 36.2 µM | CAKI-1 35.8 µM | NCI-H522 25.9 µM | HCC 2998 60.8 µM

COC(=O)C1=CNC(C(=O)OC)=NN1
inactive: DMS-114 > 100 µM | U-251 > 100 µM | Malme-3M > 100 µM | TK-10 > 100 µM | NCI-H460 > 100 µM | SN12C > 100 µM | SNB-75 > 100 µM | CCRF-CEM > 100 µM | SK-OV-3 > 100 µM | SK-MEL-5 > 100 µM | ACHN > 100 µM | SR > 100 µM | A549 > 100 µM | CAKI-1 > 100 µM | NCI-H522 > 100 µM

O=[N+]([O-])c1cc(C2SCc3nc4ccccc4n32)ccc1Cl (configuration not stated)
inactive: DMS-114 20.1 µM | U-251 27.2 µM | Malme-3M 34.8 µM | TK-10 47.5 µM | NCI-H460 31.8 µM | SN12C 12 µM | SNB-75 28.7 µM | CCRF-CEM 24.9 µM | SK-OV-3 28.1 µM | SK-MEL-5 15 µM | ACHN 27.5 µM | SR 30.2 µM | A549 33.1 µM | CAKI-1 33.3 µM | NCI-H522 20 µM | HCC 2998 18.4 µM

Nc1ccccc1SC(/C=C/NNC1=NN=C(c2ccccc2)C(c2ccccc2)N1)c1ccccc1 (configuration not stated)
inactive: DMS-114 13.6 µM | U-251 15 µM | Malme-3M 15.9 µM | TK-10 19 µM | NCI-H460 18.5 µM | SN12C 17 µM | SNB-75 4.72 µM | CCRF-CEM 2.59 µM | SK-OV-3 29.6 µM | SK-MEL-5 13.4 µM | ACHN 14.9 µM | A549 15.2 µM | CAKI-1 10.6 µM | LOX IMVI 12.7 µM | NCI-H522 3.85 µM | HCC 2998 16.5 µM

CCCc1c[nH]c(-c2ccc(-c3cc(CCC)c(C=O)[nH]3)s2)c1
inactive: DMS-114 14.1 µM | U-251 15.6 µM | Malme-3M 15.2 µM | TK-10 15.3 µM | NCI-H460 4.55 µM | SN12C 15.6 µM | SNB-75 19.8 µM | CCRF-CEM 21.8 µM | SK-OV-3 18.5 µM | SK-MEL-5 16.9 µM | ACHN 19.2 µM | A549 5.83 µM | LOX IMVI 14 µM | NCI-H522 16 µM

Cc1cc(C)cc(-n2c3nc(=O)n(C)c(=O)c-3nc3ccccc32)c1
inactive: DMS-114 13.4 µM | U-251 21.8 µM | Malme-3M 16 µM | TK-10 42.3 µM | NCI-H460 23.9 µM | SN12C 26.8 µM | SNB-75 34.9 µM | CCRF-CEM 23.2 µM | SK-OV-3 > 100 µM | SK-MEL-5 15.8 µM | ACHN 27.4 µM | A549 26.7 µM | CAKI-1 37.8 µM | LOX IMVI 29.3 µM | NCI-H522 17.5 µM | HCC 2998 18.1 µM

CC(=O)CC(=O)Nc1ccccc1C(F)(F)F
inactive: DMS-114 > 100 µM | U-251 > 100 µM | Malme-3M > 100 µM | TK-10 > 100 µM | NCI-H460 > 100 µM | SN12C > 100 µM | SNB-75 > 100 µM | CCRF-CEM > 100 µM | SK-OV-3 > 100 µM | SK-MEL-5 > 100 µM | ACHN > 100 µM | A549 > 100 µM | CAKI-1 > 100 µM | LOX IMVI > 100 µM | NCI-H522 > 100 µM | HCC 2998 > 100 µM

CCC1CC2C(=O)N(c3ccccc3)C(=O)C2c2[nH]c3ccccc3c21 (configuration not stated)
inactive: DMS-114 13.9 µM | U-251 28.5 µM | Malme-3M 14.1 µM | TK-10 31.9 µM | NCI-H460 15.8 µM | SN12C 19.6 µM | SNB-75 3.08 µM | CCRF-CEM 26.9 µM | SK-OV-3 13.6 µM | SK-MEL-5 30.8 µM | ACHN 20.2 µM | SR 23.1 µM | A549 24.6 µM | LOX IMVI 17.1 µM | HCC 2998 29.3 µM

O=c1oc2c(Cl)cc(Cl)cc2cc1-c1cn2c(n1)sc1ccccc12
inactive: U-251 > 100 µM | Malme-3M > 100 µM | TK-10 > 100 µM | DU-145 74 µM | NCI-H460 > 100 µM | BT-549 28.6 µM | SN12C 67.8 µM | SNB-75 > 100 µM | CCRF-CEM 17.3 µM | SK-OV-3 > 100 µM | SK-MEL-5 39.2 µM | ACHN 65.3 µM | SR 21.1 µM | A549 > 100 µM | CAKI-1 71.6 µM | MDA-MB-435 38.4 µM | LOX IMVI 60.3 µM | NCI-H522 30.1 µM | HCC 2998 24.5 µM

COc1ccc(N2C(=O)c3c(c4[nH]c5ccc(OC)cc5c4c4ccc(C(C)(C)C)cc34)C2=O)cc1
inactive: DMS-114 > 100 µM | U-251 > 100 µM | Malme-3M > 100 µM | TK-10 > 100 µM | NCI-H460 > 100 µM | SN12C > 100 µM | SNB-75 > 100 µM | CCRF-CEM > 100 µM | SK-OV-3 > 100 µM | SK-MEL-5 > 100 µM | ACHN > 100 µM | A549 > 100 µM | NCI-H522 > 100 µM | HCC 2998 > 100 µM

CC1=C(C(=O)Nc2cc(=O)n(C)c(=O)n2C)C(c2ccc([N+](=O)[O-])cc2)C(C(=O)Nc2cc(=O)n(C)c(=O)n2C)=C(C)N1
inactive: DMS-114 73.5 µM | U-251 > 100 µM | Malme-3M > 100 µM | TK-10 > 100 µM | NCI-H460 > 100 µM | SN12C > 100 µM | SNB-75 42 µM | CCRF-CEM > 100 µM | SK-OV-3 32.3 µM | ACHN 68.2 µM | A549 > 100 µM | LOX IMVI 54.6 µM | NCI-H522 37.1 µM | HCC 2998 94.8 µM

CCOC(=O)NN(C(=O)OCC)C(C(=O)c1ccccc1)N(NC(=O)OCC)C(=O)OCC
inactive: U-251 > 100 µM | Malme-3M > 100 µM | TK-10 > 100 µM | DU-145 > 100 µM | NCI-H460 > 100 µM | BT-549 > 100 µM | SN12C > 100 µM | SNB-75 > 100 µM | CCRF-CEM > 100 µM | SK-OV-3 > 100 µM | SK-MEL-5 > 100 µM | ACHN > 100 µM | SR > 100 µM | A549 > 100 µM | CAKI-1 > 100 µM | MDA-MB-435 > 100 µM | LOX IMVI > 100 µM | NCI-H522 > 100 µM | HCC 2998 > 100 µM

C/C1=C\CC[C@@]2(C)O[C@@H]2C[C@@H]2[C@H](C/C(C)=C/CC1)OC(=O)[C@]21CO1
inactive: U-251 63.8 µM | Malme-3M > 100 µM | TK-10 > 100 µM | DU-145 > 100 µM | NCI-H460 20.7 µM | BT-549 > 100 µM | SN12C 74.5 µM | SNB-75 > 100 µM | CCRF-CEM 46.2 µM | SK-OV-3 > 100 µM | SK-MEL-5 > 100 µM | ACHN > 100 µM | SR 36.7 µM | A549 65.2 µM | CAKI-1 > 100 µM | MDA-MB-435 65.8 µM | LOX IMVI 19.6 µM | NCI-H522 32.5 µM | HCC 2998 78.9 µM

COC(=O)NN=C1C(C)(C)C(=NNC(=O)OC)C1(C)C
inactive: DMS-114 > 41.6 µM | U-251 > 62.7 µM | Malme-3M > 100 µM | TK-10 > 100 µM | NCI-H460 > 100 µM | SN12C > 68.2 µM | SNB-75 > 100 µM | CCRF-CEM > 44.9 µM | SK-OV-3 > 100 µM | SK-MEL-5 > 100 µM | ACHN > 100 µM | A549 > 100 µM | CAKI-1 > 85.1 µM | LOX IMVI > 35.8 µM | NCI-H522 > 61.4 µM | HCC 2998 > 100 µM

CN(C)c1nc(N)c(C#N)c(C#N)c1C#N
inactive: U-251 > 10 µM | Malme-3M > 10 µM | TK-10 > 10 µM | DU-145 > 10 µM | NCI-H460 > 10 µM | BT-549 > 10 µM | SN12C > 10 µM | SNB-75 9.68 µM | CCRF-CEM 3.08 µM | SK-OV-3 > 10 µM | SK-MEL-5 > 10 µM | ACHN > 10 µM | SR 3.42 µM | A549 > 10 µM | CAKI-1 > 10 µM | MDA-MB-435 > 10 µM | LOX IMVI > 10 µM | NCI-H522 1.87 µM | HCC 2998 > 10 µM

CC(=O)OCC1OC(n2c(N)c(C#N)c(-c3ccccc3)c(C#N)c2=S)C(OC(C)=O)C(OC(C)=O)C1OC(C)=O (configuration not stated)
inactive: U-251 11.2 µM | Malme-3M > 100 µM | TK-10 > 100 µM | DU-145 > 100 µM | NCI-H460 > 79.8 µM | BT-549 42.6 µM | SN12C > 100 µM | SNB-75 7.33 µM | CCRF-CEM > 100 µM | SK-OV-3 54.2 µM | SK-MEL-5 > 100 µM | ACHN > 85.7 µM | SR > 100 µM | A549 > 100 µM | CAKI-1 44.3 µM | MDA-MB-435 > 100 µM | LOX IMVI > 100 µM | NCI-H522 13 µM | HCC 2998 > 100 µM
